Test results published in patent publication US11186564B2, “Dual NAV1.2/5HT2a inhibitors for treating CNS disorders” (Sunovion Pharmaceuticals Inc., priority 2016, dated 2021).

Key:
[1] = target: T1, recombinant human serotonin receptor 5-HT2A (Homo sapiens, UniProt P28223); assay: 5-HT2A antagonist Ca2+ assay in CHO-K1 cells (method A aequorin luminescence / method B FLIPR fluorescence); type: cell-based; conditions: antagonist mode vs EC80 of reference agonist, method A or B, read-out: 5HT2A IC50
T1 construct: expressed in transfected cells; method B: loaded with Ca2+ dye
Method in brief: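 Method A: CHO-K1 cells co-expressing human 5-HT2A and mitochondrial apoaequorin were given reference agonist at EC80 15 min after compound, with luminescence read. Method B: dye-loaded 5-HT2A CHO-K1 cells were pretreated with compound, then given serotonin at EC80, with FLIPR fluorescence read. IC50s came from nonlinear fits of percent inhibition.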

[2] = target: human sodium channel NaV1.2 (Homo sapiens, UniProt Q99250); assay: NaV1.2 inhibition, automated patch-clamp (Q-Patch HTX), slow inactivated state (state C); type: cell-based; conditions: hNaV1.2 CHO cells, slow inactivated state; for inhibition at 1 µM: 1 μM compound, read-out: NaV1.2 (% inh), 1 μM; for IC50: read-out: NaV1.2 IC50; for inhibition at 10 µM: 10 μM compound, read-out: NaV1.2 (% inh), 10 μM
Method in brief: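 CHO K-1 cells stably expressing human NaV1.2, whole-cell automated patch clamp, holding −100 mV; slow-inactivated state (state C) read at a 5 ms step to 0 mV after 10 s at −50 mV and 15 ms at −90 mV. Percent inhibition vs vehicle; IC50 by nonlinear least-squares fit.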

T1 sequence (P28223 whole entry): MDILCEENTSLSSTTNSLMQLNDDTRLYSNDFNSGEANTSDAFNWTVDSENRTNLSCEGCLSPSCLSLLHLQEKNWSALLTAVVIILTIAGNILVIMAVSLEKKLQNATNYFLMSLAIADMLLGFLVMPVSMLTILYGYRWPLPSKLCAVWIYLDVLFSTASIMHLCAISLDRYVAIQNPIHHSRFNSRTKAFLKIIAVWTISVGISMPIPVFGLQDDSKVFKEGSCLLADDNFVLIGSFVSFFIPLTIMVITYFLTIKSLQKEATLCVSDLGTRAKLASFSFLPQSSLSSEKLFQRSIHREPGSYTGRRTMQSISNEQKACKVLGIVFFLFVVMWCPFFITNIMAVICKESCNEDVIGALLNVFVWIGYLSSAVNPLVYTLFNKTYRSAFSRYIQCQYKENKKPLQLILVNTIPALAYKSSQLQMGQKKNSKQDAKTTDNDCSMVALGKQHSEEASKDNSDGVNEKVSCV
human sodium channel NaV1.2, sequence (Q99250 whole entry): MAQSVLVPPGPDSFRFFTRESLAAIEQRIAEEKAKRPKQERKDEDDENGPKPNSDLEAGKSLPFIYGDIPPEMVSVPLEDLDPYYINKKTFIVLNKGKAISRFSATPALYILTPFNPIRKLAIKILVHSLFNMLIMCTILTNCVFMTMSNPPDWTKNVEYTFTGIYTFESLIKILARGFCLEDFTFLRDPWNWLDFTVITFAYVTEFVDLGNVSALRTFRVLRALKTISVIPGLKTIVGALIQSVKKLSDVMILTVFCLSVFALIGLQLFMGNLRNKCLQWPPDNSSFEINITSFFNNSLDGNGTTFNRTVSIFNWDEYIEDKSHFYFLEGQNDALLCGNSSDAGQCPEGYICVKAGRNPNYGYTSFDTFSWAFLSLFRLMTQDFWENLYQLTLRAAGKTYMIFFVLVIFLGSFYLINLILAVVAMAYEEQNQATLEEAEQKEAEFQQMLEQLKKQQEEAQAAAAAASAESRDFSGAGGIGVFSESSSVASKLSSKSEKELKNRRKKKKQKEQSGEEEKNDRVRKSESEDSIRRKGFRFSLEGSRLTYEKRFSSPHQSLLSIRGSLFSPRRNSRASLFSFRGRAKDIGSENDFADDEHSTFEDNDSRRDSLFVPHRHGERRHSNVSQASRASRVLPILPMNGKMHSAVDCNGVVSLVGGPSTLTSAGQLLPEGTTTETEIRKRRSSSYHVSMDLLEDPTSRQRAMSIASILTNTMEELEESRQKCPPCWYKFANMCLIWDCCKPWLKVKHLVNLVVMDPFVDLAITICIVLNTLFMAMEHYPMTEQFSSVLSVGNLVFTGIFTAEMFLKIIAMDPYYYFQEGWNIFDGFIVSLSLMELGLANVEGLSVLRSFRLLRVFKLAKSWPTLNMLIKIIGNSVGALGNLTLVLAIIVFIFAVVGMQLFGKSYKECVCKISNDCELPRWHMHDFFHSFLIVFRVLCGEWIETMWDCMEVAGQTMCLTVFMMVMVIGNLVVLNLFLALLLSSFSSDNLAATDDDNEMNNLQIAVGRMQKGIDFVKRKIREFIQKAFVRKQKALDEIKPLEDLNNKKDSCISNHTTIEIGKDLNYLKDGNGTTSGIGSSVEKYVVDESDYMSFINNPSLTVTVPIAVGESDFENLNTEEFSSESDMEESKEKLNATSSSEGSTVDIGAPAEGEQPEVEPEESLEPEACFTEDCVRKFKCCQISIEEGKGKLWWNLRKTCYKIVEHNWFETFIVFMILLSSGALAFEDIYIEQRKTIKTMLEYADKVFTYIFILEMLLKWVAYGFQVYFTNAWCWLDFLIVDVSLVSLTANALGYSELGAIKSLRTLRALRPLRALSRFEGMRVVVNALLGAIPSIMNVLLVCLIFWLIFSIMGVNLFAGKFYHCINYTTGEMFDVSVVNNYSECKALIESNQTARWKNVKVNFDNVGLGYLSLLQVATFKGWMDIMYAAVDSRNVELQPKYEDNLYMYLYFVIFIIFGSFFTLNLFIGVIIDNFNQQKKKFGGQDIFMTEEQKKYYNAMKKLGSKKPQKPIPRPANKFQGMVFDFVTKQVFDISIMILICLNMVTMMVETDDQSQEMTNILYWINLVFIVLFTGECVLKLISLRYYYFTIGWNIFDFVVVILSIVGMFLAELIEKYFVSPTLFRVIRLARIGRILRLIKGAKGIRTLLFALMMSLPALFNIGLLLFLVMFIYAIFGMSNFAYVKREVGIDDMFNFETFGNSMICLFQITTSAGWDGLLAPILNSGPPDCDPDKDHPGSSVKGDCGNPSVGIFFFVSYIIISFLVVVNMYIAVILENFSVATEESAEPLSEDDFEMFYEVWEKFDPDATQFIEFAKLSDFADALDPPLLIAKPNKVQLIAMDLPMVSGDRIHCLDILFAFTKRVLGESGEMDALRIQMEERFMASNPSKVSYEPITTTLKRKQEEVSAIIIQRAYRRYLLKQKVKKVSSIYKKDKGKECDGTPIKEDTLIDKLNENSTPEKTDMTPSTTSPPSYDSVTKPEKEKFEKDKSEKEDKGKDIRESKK

Row | IC50 [1] [nM] | inhibition at 1 µM [2] [%] | inhibition at 10 µM [2] [%] | Structure (SMILES) | IC50 [2] [nM]
1 | 10 | 37 |  | COc1ccc2c(c1)C(CN1CCC(Oc3ccccc3C#N)CC1)CC2 (stereo not shown) [Example 98, 2-((1-((6-methoxy-2,3-dihydro-1H-inden-1-yl)methyl)piperidin-4-yl)oxy)benzonitrile] | 
2 | 350 | 22 |  | Fc1ccc(O[C@H]2CCCN(CC3COCc4ccccc43)C2)cc1 (stereo partly drawn) [Example 261, (3S)-3-(4-fluorophenoxy)-1-(isochroman-4-ylmethyl)piperidine] | 
3 | 150 | 82 |  | COc1ccc2c(c1)C(CN1CC[C@@H](Oc3ccccc3OC)C[C@@H]1C)CC2 (stereo partly drawn) [Example 102, (2S,4R)-1-((6-methoxy-2,3-dihydro-1H-inden-1-yl)methyl)-4-(2-methoxyphenoxy)-2-methylpiperidine] | 
4 | 1260 |  | 99 | O=C(NCCN1CCCCC1)c1cccc(-c2ccc(Oc3ccc(F)cc3)cc2)n1 [Example 447, 6-(4-(4-fluorophenoxy)phenyl)-N-(2-(piperidin-1-yl)ethyl)picolinamide] | 
5 | 130 | 2 |  | Fc1ccc(OC2CCN(CCC3CCCCO3)CC2)cc1 (stereo not shown) [Example 168, 4-(4-fluorophenoxy)-1-(2-(tetrahydro-2H-pyran-2-yl)ethyl)piperidine] | 
6 | 320 | 8 |  | CN1Cc2ccccc2C(CCN2CCC(Oc3ccc(F)cc3)CC2)C1 (stereo not shown) [Example 180, 4-(2-(4-(4-fluorophenoxy)piperidin-1-yl)ethyl)-2-methyl-1,2,3,4-tetrahydroisoquinoline] | 
7 | 174 |  | 62 | COc1ccc(OC2CCN(CCN3CCc4ccccc4C3=O)CC2)cc1 [Example 202, 2-(2-(4-(4-methoxyphenoxy)piperidin-1-yl)ethyl)-3,4-dihydroisoquinolin-1(2H)-one] | 
8 | 200 |  | 8 | Clc1cccc(N2CCN(Cn3c(COc4ccccc4)nc4ccccc43)CC2)c1 [Example 61, 1-((4-(3-chlorophenyl)piperazin-1-yl)methyl)-2-(phenoxymethyl)-1H-benzo[d]imidazole] | 
9 | 280 | 58 |  | c1ccc(OC2CCN(CCO[C@H]3CCc4ccccc43)CC2)cc1 [Example 217, (S)-1-(2-((2,3-dihydro-1H-inden-1-yl)oxy)ethyl)-4-phenoxypiperidine] | 
10 | 10 |  | 54 | O=C1Cc2ccccc2N1CCCN1CCC(Oc2ccc(F)cc2)CC1 [Example 219, 1-(3-(4-(4-fluorophenoxy)piperidin-1-yl)propyl)indolin-2-one] | 
11 | 250 | 0 |  | c1ccc2c(c1)CCC1(CCN(CCC3Cc4ccncc4C3)CC1)O2 (stereo not shown) [Example 420, 1′-(2-(6,7-dihydro-5H-cyclopenta[c]pyridin-6-yl)ethyl)spiro[chromane-2,4′-piperidine]] | 
12 | 180 | -10 |  | COc1ccccc1OC1CCN(CC2Cc3cccnc3C2)CC1 (stereo not shown) [Example 139, 6-((4-(2-methoxyphenoxy)piperidin-1-yl)methyl)-6,7-dihydro-5H-cyclopenta[b]pyridine] | 
13 | 360 |  | 67 | COCc1cccc(OC2CCN(CCN3CCc4ccccc4C3=O)CC2)c1 [Example 196, 2-(2-(4-(3-(methoxymethyl)phenoxy)piperidin-1-yl)ethyl)-3,4-dihydroisoquinolin-1(2H)-one] | 
14 | 20 |  | 77 | OC1(CN2CCC(Oc3ccc(F)cc3)CC2)COCc2ccccc21 (stereo not shown) [Example 159, 4-((4-(4-fluorophenoxy)piperidin-1-yl)methyl)isochroman-4-ol] | 
15 | 100 |  | 83 | Cc1cccc(N2CCN(CC3COCc4ccccc43)CC2)c1C (stereo not shown) [Example 57, 1-(2,3-dimethylphenyl)-4-(isochroman-4-ylmethyl)piperazine] | 
16 | 10 |  | 73 | O=C1c2ccccc2CCN1CCN1CCC(Oc2ccc(F)cc2)CC1 [Example 200, 2-(2-(4-(4-fluorophenoxy)piperidin-1-yl)ethyl)-3,4-dihydroisoquinolin-1(2H)-one] | 

The remaining lines, values behind:

Row | Structure (SMILES) | IC50 [1] [nM] | inhibition at 1 µM [2] [%] | inhibition at 10 µM [2] [%] | IC50 [2] [nM]
17 | Fc1ccc(O[C@@H]2CCN(CC3CCc4ncccc43)C2)cc1 (stereo partly drawn) [Example 3, 5-(((R)-3-(4-fluorophenoxy)pyrrolidin-1-yl)methyl)-6,7-dihydro-5H-cyclopenta[b]pyridine] | 1880 | -5 |  | 
18 | COc1ccccc1O[C@@H]1CCN(CC2Cc3ccccc3C2)C[C@@H]1C [Example 144, (3S,4R)-1-((2,3-dihydro-1H-inden-2-yl)methyl)-4-(2-methoxyphenoxy)-3-methylpiperidine] | 270 |  |  | 540
19 | Cc1ccccc1OC1CCN(CC2Cc3cccnc3C2)CC1 (stereo not shown) [Example 137, 6-((4-(o-tolyloxy)piperidin-1-yl)methyl)-6,7-dihydro-5H-cyclopenta[b] pyridine] | 40 | 44 |  | 
20 | N#Cc1cccc2c1CCC2CN1CCC(Oc2ccc(F)cc2)CC1 (stereo not shown) [Example 122, 1-((4-(4-fluorophenoxy)piperidin-1-yl)methyl)-2,3-dihydro-1H-indene-4-carbonitrile] | 90 |  |  | 110
21 | COc1ccccc1CCN1CCC2(CCc3ccccc3O2)CC1 [Example 428, 1′-(2-methoxyphenethyl) spiro[chromane-2,4′-piperidine]] | 190 |  | 86 | 
22 | O=C1c2ccc(Br)cc2CCCN1CCN1CCC(Oc2ccc(F)cc2)CC1 [Example 213, 7-bromo-2-(2-(4-(4-fluorophenoxy)piperidin-1-yl)ethyl)-2,3,4,5-tetrahydro-1H-benzo[c]azepin-1-one] | 80 |  |  | 180
23 | CO[C@@H](CCN1CCC(Oc2ccccc2)CC1)c1ccccc1 [Example 230, (S)-1-(3-methoxy-3-phenylpropyl)-4-phenoxypiperidine] | 390 |  | 87 | 
24 | COc1ccc2c(c1)C(CN1CCC3(CCc4ccccc4O3)CC1)CC2 (stereo not shown) [Example 402, 1′-((6-methoxy-2,3-dihydro-1H-inden-1-yl)methyl)spiro[chromane-2,4′-piperidine]] | 1070 |  |  | 70
25 | c1ccc2c(c1)CC(CN1CCC3(CCc4ccccc4O3)CC1)C2 [Example 410, 1′-((2,3-dihydro-1H-inden-2-yl)methyl)spiro[chromane-2,4′-piperidine]] | 100 |  |  | 480
26 | OC(COC1CCCCC1)CN1CCC2(CCc3ccccc3O2)CC1 (stereo not shown) [Example 436, 1-(cyclohexyloxy)-3-(spiro[chromane-2,4′-piperidin]-1′-yl)propan-2-ol] | 20 |  |  | 260
27 | CN(C)c1ccc(OC2CCN(CCN3CCc4ccccc4C3=O)CC2)cc1 [Example 201, 2-(2-(4-(4-(dimethylamino)phenoxy)piperidin-1-yl)ethyl)-3,4-dihydroisoquinolin-1(2H)-one] | 2170 |  | 39 | 
28 | Fc1ccc(O[C@@H]2CCN(CC3COCc4ccccc43)C2)cc1 (stereo partly drawn) [Example 11, (3R)-3-(4-fluorophenoxy)-1-(isochroman-4-ylmethyl)pyrrolidine] | 590 | 29 |  | 
29 | OC(CO[C@@H]1CCc2ccccc21)CN1CC[C@@H](Oc2cccc(F)c2)C1 (stereo partly drawn) [Example 36, 1-(((R)-2,3-dihydro-1H-inden-1-yl)oxy)-3-((R)-3-(3-fluorophenoxy)pyrrolidin-1-yl)propan-2-ol] | 1760 |  |  | 250
